Values joined by “and” are separate entries in the source; they are usually repeats but may differ in a detail not shown here. Identical values can stand only once.
Tests used:
Chondroitinase ABC = target: T1, Chondroitinase ABC (Proteus vulgaris, UniProt P59807); assay: Fluorescence response to biological species: chondroitinase; format: biochemical; conditions: 5 μM; chondroitinase 5 μg (50 μg also tested); 4 h, 37° C.
T1 sequence (P59807 25-1021): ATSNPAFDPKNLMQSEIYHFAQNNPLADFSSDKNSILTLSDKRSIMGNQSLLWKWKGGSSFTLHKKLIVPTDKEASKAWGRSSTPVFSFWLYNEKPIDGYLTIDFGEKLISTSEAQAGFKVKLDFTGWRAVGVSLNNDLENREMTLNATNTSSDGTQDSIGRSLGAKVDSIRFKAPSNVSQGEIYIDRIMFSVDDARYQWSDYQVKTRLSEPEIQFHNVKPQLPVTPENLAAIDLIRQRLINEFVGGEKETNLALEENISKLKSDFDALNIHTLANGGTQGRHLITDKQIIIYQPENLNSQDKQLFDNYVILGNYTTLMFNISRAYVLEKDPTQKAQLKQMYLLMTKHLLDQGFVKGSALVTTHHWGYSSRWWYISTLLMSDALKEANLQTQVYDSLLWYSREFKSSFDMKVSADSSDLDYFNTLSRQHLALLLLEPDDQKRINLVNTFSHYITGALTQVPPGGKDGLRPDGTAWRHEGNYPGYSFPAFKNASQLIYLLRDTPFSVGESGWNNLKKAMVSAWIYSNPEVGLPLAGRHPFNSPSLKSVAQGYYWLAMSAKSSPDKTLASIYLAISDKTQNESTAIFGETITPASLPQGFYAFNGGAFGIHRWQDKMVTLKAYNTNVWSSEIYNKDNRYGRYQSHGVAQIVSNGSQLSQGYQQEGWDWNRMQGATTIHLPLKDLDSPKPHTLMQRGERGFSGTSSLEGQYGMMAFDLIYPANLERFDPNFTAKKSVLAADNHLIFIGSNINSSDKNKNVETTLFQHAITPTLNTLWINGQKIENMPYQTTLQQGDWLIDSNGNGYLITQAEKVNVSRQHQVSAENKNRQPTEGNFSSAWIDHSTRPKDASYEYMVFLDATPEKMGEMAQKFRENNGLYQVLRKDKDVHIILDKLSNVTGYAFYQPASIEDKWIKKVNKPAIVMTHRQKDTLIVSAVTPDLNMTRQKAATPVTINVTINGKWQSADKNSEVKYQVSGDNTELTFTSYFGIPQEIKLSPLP
Protocol: 5 μM compound 1 (HADP) was incubated with various biological species at the indicated amount/concentration in 96-well microplate. Cysteine (5 mM), Glutathione (5 mM), H2O2 (100 μM), Esterase, Chondroitinase ABC, Hyaluronidase, Lysozyme, β-Glucuronidase, β-Glucosidase (5 μg each) and heparanase (2 μg). For Chondroitinase ABC and Hyaluronidase, 50 μg was also tested. Each sample was performed in triplicates. Then the microplate was sealed with sealing film and incubated at 37° C. for 4 hours. Fluorescence intensity was recorded on Spectramax M5 Multimode plate reader (Molecular Devices, USA). λex/em=365 nm/455 nm.

heparanase = target: T2, heparanase (Homo sapiens, UniProt Q9Y251); assay: Kinetics and detection limit of heparanase by Compound 1 (HADP); format: biochemical
T2 sequence (Q9Y251 36-543): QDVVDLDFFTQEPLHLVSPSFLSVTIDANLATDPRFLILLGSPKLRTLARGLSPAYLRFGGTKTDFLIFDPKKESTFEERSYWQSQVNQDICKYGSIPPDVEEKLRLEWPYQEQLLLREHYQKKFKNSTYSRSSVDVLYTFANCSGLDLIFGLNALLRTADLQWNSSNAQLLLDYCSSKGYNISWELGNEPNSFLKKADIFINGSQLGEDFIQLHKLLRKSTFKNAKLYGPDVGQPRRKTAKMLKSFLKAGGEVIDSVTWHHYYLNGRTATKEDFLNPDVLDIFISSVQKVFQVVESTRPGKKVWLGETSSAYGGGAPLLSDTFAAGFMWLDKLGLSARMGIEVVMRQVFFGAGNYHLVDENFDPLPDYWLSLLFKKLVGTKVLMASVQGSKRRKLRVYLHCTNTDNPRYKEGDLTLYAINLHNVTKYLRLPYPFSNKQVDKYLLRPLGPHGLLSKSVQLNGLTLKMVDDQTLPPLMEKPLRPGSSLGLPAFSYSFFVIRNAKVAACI
Protocol: To a solution of 20 μL, of 50 μM HADP (compound 1) and 160 μL 40 mM NaOAc buffer (pH 5.0) buffers was added 20 μL, heparanase with various concentrations (0-0.1 μg/μL) in 96-well microplate. Then final concentration of heparanase is from 0-0.01 μg/μL. Each concentration was performed in triplicates. Then the fluorescence intensity was recorded on Spectramax M5 Multimode plate reader (Molecular Devices, USA) at each timepoint. λex/em=365 nm/455 nm.
To calculate the detection limit, plot the fluorescence intensity against heparanase concentration and fit a line with linear regression. The detection limit was estimated with the following formula. LOD=3 σ/s, where σ represents standard deviation of fluorescent intensity of blank sample, s is the calculated slope of linear regression equation.
To determine the detection limit of Compound 1 (HADP) probe for heparanse, concentration-dependent studies with various concentrations of heparanse over time were performed with 5 μM 1 (HADP). The concentration increases of heparanse led to higher fluorescent intensities at the same time point due to the expedited cleavage of glyosidic bond, releasing more fluorophores. A good linear relationship was obtained in the heparanse concentration range of 0-0.01 μgμl-1 with an equation of F455 nm=650443[HPA]+12.03 (R^2=0.9968). Based on 3σ/s method, the limit of detection (LOD) of Compound 1 for heparanse was calculated to be 0.35 ng/mL (67 pM), indicating the ultra-sensitivity of Compound 1 (HADP) to detect heparanase activity. The kinetic parameters for the enzymatic cleavage of Compound 1 (HADP) were determined via time-dependent fluorescence intensity in the presence of heparanase and probe 1 (HADP) at different concentration.

For `Cc1cc(=O)oc2c(F)c(O[C@@H]3O[C@H](C(=O)O)[C@@H](O[C@H]4O[C@H](CO)[C@@H](O)[C@H](O)[C@H]4NS(=O)(=O)O)[C@H](O)[C@H]3O)c(F)cc12` [Compound 1], the fluorescence change (Chondroitinase ABC) was “did not afford obvious fluorescence change”, the “limit of detection (LOD) for heparanase” value (heparanase; 5 μM probe, 3σ/s method) was 0.35 ng/mL and 67 pM and the “turnover number (kcat)” value (heparanase; enzymatic cleavage by heparanase) was 0.04 s⁻¹. For the same compound, the Km (heparanase; enzymatic cleavage by heparanase, read-out: Michaelis constant (Km)) was 8.3 µM.

From patent publication US20220202964A1, “HEPARANASE COMPOUNDS AND METHODS OF USE” (University of Florida Research Foundation, Incorporated, priority 2019, published 2022)
